Source: ChEMBL document CHEMBL4339246, “Iridal-Type Triterpenoids with a Cyclopentane Unit from the Rhizomes of Belamcanda chinensis” (J Nat Prod, 2019)

Key:
A549 = assay: Cytotoxicity in human A549 cells assessed as reduction in cell viability incubated for 72 hrs by MTT assay; type: functional, cell-based; details: A549, 72 h
BV-2 = assay: Antiinflammatory activity in mouse BV2 cells assessed as inhibition of LPS-induced nitric oxide production pretreated for 24 hrs followed by LPS-stimulation for 24 hrs by Griess assay; type: functional, cell-based
HCT-116 = assay: Cytotoxicity in human HCT116 cells assessed as reduction in cell viability incubated for 72 hrs by MTT assay; type: functional, cell-based; details: HCT-116, 72 h
BGC-823 = assay: Cytotoxicity in human BGC823 cells assessed as reduction in cell viability incubated for 72 hrs by MTT assay; type: functional, cell-based; details: BGC-823, 72 h
[1] = target: T1, Tyrosine-protein phosphatase non-receptor type 1 (Homo sapiens) (UniProt P18031); assay: Inhibition of recombinant human GST-tagged PTP1B expressed in expressed in Escherichia coli BL21 cells at 10 uM pre-incubated for 5 mins before pNPP substrate addition and further incubated for 30 mins relative to untreated control
T1 sequence (whole entry): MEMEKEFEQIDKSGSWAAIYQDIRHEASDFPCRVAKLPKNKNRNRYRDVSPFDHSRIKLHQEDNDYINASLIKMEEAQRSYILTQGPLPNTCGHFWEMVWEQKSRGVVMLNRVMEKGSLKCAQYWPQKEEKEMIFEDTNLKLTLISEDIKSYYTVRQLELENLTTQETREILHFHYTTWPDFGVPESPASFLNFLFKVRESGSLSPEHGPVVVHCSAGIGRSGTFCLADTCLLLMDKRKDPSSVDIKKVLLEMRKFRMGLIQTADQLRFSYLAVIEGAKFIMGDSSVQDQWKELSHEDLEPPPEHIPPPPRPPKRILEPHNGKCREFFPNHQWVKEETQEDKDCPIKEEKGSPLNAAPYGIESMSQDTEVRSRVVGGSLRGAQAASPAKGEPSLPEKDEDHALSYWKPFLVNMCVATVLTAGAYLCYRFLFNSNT

HepG2 = assay: Cytotoxicity in human HepG2 cells assessed as reduction in cell viability incubated for 72 hrs by MTT assay; type: functional, cell-based; details: HepG2, 72 h
MCF7 = assay: Cytotoxicity in human MCF7 cells assessed as reduction in cell viability incubated for 72 hrs by MTT assay; type: functional, cell-based; details: MCF7, 72 h

SMILES | IC50 (BV-2) [µM] | inhibition [1] [%] | IC50 (A549) [µM] | IC50 (HCT-116) [µM] | IC50 (BGC-823) [µM] | IC50 (HepG2) [µM] | IC50 (MCF7) [µM]
C=C(C)[C@@H]1CC[C@](C)(O)[C@H]1/C=C/C(C)=C/[C@@H]1C[C@@]2([C@H](OC)O1)[C@H](CCCO)/C(=C(\C)C=O)CC[C@]2(C)O | > 10 | -1.8 | > 10 | > 10 | > 10 | > 10 | > 10
C=C(C)[C@H]1CC[C@@](C)(O)[C@@H]1/C=C/C(C)=C/[C@@H]1C[C@@]23[C@H](OCCC[C@@H]2/C(=C(\C)C=O)CC[C@]3(C)O)O1 | > 10 | 26.4 | > 10 | > 10 | > 10 | > 10 | > 10
C=C(C)[C@H]1CC[C@@](C)(O)[C@@H]1/C=C/C(C)=C/[C@@H]1C[C@@]23[C@H](OCCC[C@@H]2/C(=C(/C)C=O)CC[C@]3(C)O)O1 | > 10 | 24.8 | > 10 | > 10 | > 10 | > 10 | > 10
C=C(C)[C@@H]1CC[C@](C)(O)[C@H]1/C=C/C(C)=C/[C@@H]1C[C@@]23[C@H](OCCC[C@@H]2/C(=C(/C)C=O)CC[C@]3(C)O)O1 | > 10 | 16.5 | > 10 | > 10 | > 10 | > 10 | > 10

The next lines start with results.

IC50 (BV-2) [µM] | inhibition [1] [%] | SMILES | IC50 (A549) [µM] | IC50 (HCT-116) [µM] | IC50 (BGC-823) [µM] | IC50 (HepG2) [µM] | IC50 (MCF7) [µM]
> 10 | 33.4 | C=C(C)[C@@H]1CC[C@](C)(O)[C@H]1/C=C/C(C)=C/[C@@H]1C[C@@]23[C@H](OCCC[C@@H]2/C(=C(\C)C=O)CC[C@]3(C)O)O1 | > 10 | > 10 | > 10 | > 10 | > 10
> 10 | 32.9 | C=C(C)[C@H]1CC[C@@](C)(O)[C@@H]1/C=C/C(C)=C/[C@@H]1C[C@@]2([C@H](OCC)O1)[C@H](CCCO)/C(=C(\C)C=O)CC[C@]2(C)O | > 10 | > 10 | > 10 | > 10 | > 10
> 10 | 15.2 | C=C(C)[C@H]1CC[C@@](C)(O)[C@@H]1/C=C/C(C)=C/[C@@H]1C[C@@]2([C@H](OC)O1)[C@H](CCCO)/C(=C(\C)C=O)CC[C@]2(C)O | > 10 | > 10 | > 10 | > 10 | > 10
> 10 | 23.5 | C=C(C)[C@@H]1CC[C@](C)(O)[C@H]1/C=C/C(C)=C/[C@@H]1C[C@@]2([C@H](OC)O1)[C@H](CCCO)/C(=C(/C)C=O)CC[C@]2(C)O | > 10 | > 10 | > 10 | > 10 | > 10
> 10 | -0.5 | C=C(C)[C@H]1CC[C@@](C)(O)[C@@H]1/C=C/C(C)=C/[C@@H]1C[C@@]2([C@H](OC)O1)[C@H](CCCO)/C(=C(/C)C=O)CC[C@]2(C)O | > 10 | > 10 | > 10 | > 10 | > 10
